# Where “and” joins values, the source holds several entries; their conditions need not be identical. Equal entries are not always repeated.
# Key:
# Nrf2 = Nrf2 reporter activity by Tg(gstp1:GFP) fluorescence in transgenic zebrafish embryos; type: in vivo; settings: 24-hour treatment from 1 dpf to 2 dpf; for Ratio/CTL, Tg(gstp1:GFP) fluorescence signal: 5 μM, olfactory epithelia, relative to vehicle (DMSO = 1.00)
# Description: Zebrafish AB transgenic strains Tg(gstp1:GFP) were maintained in a Pentair Aquatic Ecosystem (Apopka, Fla., United States of America) fish housing unit with 14 h light/10 h dark cycle (see Tsujita, T., Li, L., Nakajima, H., Iwamoto, N., Nakajima-Takagi, Y., Ohashi, K., Kawakami, K., Kumagai, Y., Freeman, B. A., Yamamoto, M., and Kobayashi, M. (2011) “Nitro-fatty acids and cyclopentenone prostaglandins share strategies to activate the Keap1-Nrf2 system: a study using green fluorescent protein transgenic zebrafish.” Genes Cells 16, 46-57). The fish embryos were maintained at 28.5° C. in 0.3× Danieau's solution (19.3 mM NaCl, 0.23 mM KCl, 0.13 mM MgSO4, 0.2 mM Ca(NO3)2, 1.7 mM HEPES, pH 7.0) containing 30 μg/ml phenylthiourea (PTU) to inhibit pigmentation. Tg(gstp1:GFP) cross with AB wild-type strain fluorescence embryos were used for the experiment. Zebrafish embryos were washed, dechorionated and anaesthetized before observations, and fluorescence imaging for analysis.
# Transgenic zebrafish embryos at 1 day-post-fertilization (dpf) were dechorionated and placed in Petri dishes containing different chemicals diluted in 0.3× Danieau's solution containing PTU. The chemical stock was dissolved in DMSO at 5 mM concentration.
# An Olympus MVX10 Fluorescence Macroscope (Olympus, Center Valley, Pa., United States of America) equipped with a Hamamatsu C9300-221 high-speed digital CCD camera (Hamamatsu City, Japan) was used for fluorescence microscopy. Tg(gstp1:GFP) fluorescent embryos were anaesthetized in tricaine and imaged at 2 dpf. MetaMorph Basic software (Olympus, Center Valley, Pa., United States of America) was used for image acquisition and analysis.
# Quantification of Nrf2 Reporter Activity by Tg(gstp1:
# GFP) Fluoresence in Zebrafish Model. The fluorescence intensity of the olfactory neural epithelia was quantitated using MetaMorph Basic software. In brief, GFP expression in the olfactory regions of Tg(gstp1:GFP) embryos treated with various chemicals was measured after 24-hour treatment from 1 dpf to 2 dpf. The GFP induction was detectable by fluorescence signal at the area of the olfactory epithelia in the anterior of the head region, the intensity was measured using an area of a circle of 60 pixel diameter of the fluorescence olfactory epithelia subtracted by a background non-fluorescence area next to the zebrafish embryo. Both the left and right olfactory epithelia were measured to give an average fluorescence value. The values are an average of measurements from at least 10 embryos.
# [1] = Formation of cysteine conjugates in mice (urine, LC/MS); type: in vivo, mouse; settings: oral gavage 200 mg/kg, urine collected in 24 h
# Description: LC/MS analysis was carried out with a Thermo-Finnigan Spectra System, which consisted of an Accela high speed MS pump, an Accela refrigerated autosampler, and an LCQ Fleet ion trap mass detector (Thermo Electron, San Jose, Calif., United States of America) incorporated with an electrospray ionization (ESI) interface. A Gemini-NX C18 column (150 mm×4.6 mm i.d., 5 μm; Phenomenex, Torrance, Calif., United States of America) was used for separation at a flow rate of 0.3 mL/min. The column was eluted with 100% A (5% aqueous methanol with 0.2% formic acid) for 1 min, followed by linear increases in B (95% aqueous methanol with 0.2% formic acid) to 55% from 1 to 4 min, to 85% from 4 to 25 min, then to 100% B from 25 to 30 min, and then with 100% B from 30 to 35 min. The column was then re-equilibrated with 100% A for 5 min. The LC eluent was introduced into the ESI interface. The positive ion polarity mode was set for the ESI source with the voltage on the ESI interface maintained at approximately 4.6 kV. Nitrogen gas was used as the sheath gas and auxiliary gas. […] The mass range was measured from 100 to 800 m/z. […]
# Enzymatic deconjugation of mouse urine was performed as described previously with slight modifications. […] The resulting suspension was centrifuged at 17,000 g for 5 min, and 10 μL of supernatant was analyzed directly by LC/MS.
# [2] = Biotransformation in zebrafish embryos (cysteine conjugates, LC/MS); type: in vivo; settings: 5 μM in incubation medium, 8 hpf to 24 hpf
# Description: Fifty zebrafish embryos at the 8 hour-post-fertilization (hpf) stage were incubated at 28.5° C. in 0.3× Danieau's solution (19.3 mM NaCl, 0.23 mM KCl, 0.13 mM MgSO4, 0.2 mM Ca(NO3)2, 1.7 mM HEPES, pH 7.0) with or without 5 μM 18 and 25-27, respectively. At 24 hpf, embryos were dechorionated manually and the chorions were carefully removed one by one from the culture medium. The zebrafish embryos were harvested and kept at −80° C. till analyzed by LC/MS.
# 200 μL Sodium acetate buffer solution (pH 5.0) was added to 50 zebrafish embryos. Samples were homogenized for 90 s by an Omni Bead Ruptor Homogenizer (Kennesaw, Ga., United States of America). 10 μL 10% ascorbic acid and 300 μL sodium acetate buffer were added to the homogenates. The mixture was incubated in the presence of β-glucuronidase (250 U) and sulfatase (3 U) at 37° C. for 45 min, and then 600 μL MeOH with 1% acetic acid was added. The resulting mixture was vortexed for 30 s and then centrifuged at 17000 g for 10 min. The supernatant was removed and evaporated under a gentle stream of nitrogen. The residue was reconstituted in 150 μL 90% MeOH with 0.2% acetic acid (AA), and 10 μL was analyzed directly by LC/MS.
# LC/MS analysis was carried out with a Thermo-Finnigan Spectra System, which consisted of an Accela high speed MS pump, an Accela refrigerated autosampler, and an LCQ Fleet ion trap mass detector (Thermo Electron, San Jose, Calif., United States of America) incorporated with an electrospray ionization (ESI) interface. A Gemini-NX C18 column (150 mm×4.6 mm i.d., 5 μm; Phenomenex, Torrance, Calif., United States of America) was used for separation at a flow rate of 0.3 mL/min. The column was eluted with 100% A (5% aqueous methanol with 0.2% formic acid) for 1 min, followed by linear increases in B (95% aqueous methanol with 0.2% formic acid) to 55% from 1 to 4 min, to 85% from 4 to 25 min, then to 100% B from 25 to 30 min, and then with 100% B from 30 to 35 min. The column was then re-equilibrated with 100% A for 5 min. The LC eluent was introduced into the ESI interface. The positive ion polarity mode was set for the ESI source with the voltage on the ESI interface maintained at approximately 4.6 kV. Nitrogen gas was used as the sheath gas and auxiliary gas. Optimized source parameters, including capillary temperature (260° C.), sheath gas flow rate (31 arbitrary units), auxiliary gas flow rate (16 units), tube lens (34 V), and capillary voltage 9 V, were tuned using authentic samples. The collision-induced dissociation (CID) was conducted with an isolation width 2 Da and normalized collision energy of 35 for MS^2. The mass range was measured from 100 to 800 m/z. Data acquisition was performed with Xcalibur version 2.0 (Thermo Electron, San Jose, Calif., United States of America).
compound,measurement,setting,value
"CCCCC/C=C/C(=O)CCc1ccc(O)c(OC)c1 [Compound 1, [6]-shogaol, reference compound]","Ratio/CTL, Tg(gstp1:GFP) fluorescence signal",Nrf2,2.40 and 2.40 ± 0.54
same,"Ratio/CTL, Tg(gstp1:GFP) fluorescence signal",Nrf2; listed as 6S,2.40
"CCCCCCC/C=C/C(=O)CCc1ccc(O)c(OC)c1 [Compound 2, reference compound]","Ratio/CTL, Tg(gstp1:GFP) fluorescence signal",Nrf2,1.67 ± 0.55
same,"Ratio/CTL, Tg(gstp1:GFP) fluorescence signal",Nrf2; listed as 8S,1.67
"CCCCCCCCC/C=C/C(=O)CCc1ccc(O)c(OC)c1 [Compound 3, reference compound]","Ratio/CTL, Tg(gstp1:GFP) fluorescence signal",Nrf2,1.53 ± 0.53
same,"Ratio/CTL, Tg(gstp1:GFP) fluorescence signal",Nrf2; listed as 10S,1.53
CCCCCC=CC(O)CCc1ccc(O)c(OC)c1 (centres unmarked) [Compound 4],"Ratio/CTL, Tg(gstp1:GFP) fluorescence signal",Nrf2,1.13 and 1.13 ± 0.21
CCCCCCCC(=O)CCc1ccc(O)c(OC)c1 [Compound 5],"Ratio/CTL, Tg(gstp1:GFP) fluorescence signal",Nrf2,1.27 and 1.27 ± 0.29
CCCCCC(CC(=O)CCc1ccc(O)c(OC)c1)SCC(N)C(=O)O (centres unmarked) [Compound 6],"Ratio/CTL, Tg(gstp1:GFP) fluorescence signal",Nrf2,1.06 ± 0.20
CCCCCC(CC(=O)CCc1ccc(O)c(OC)c1)SCC(NC(C)=O)C(=O)O (centres unmarked) [Compound 7],"Ratio/CTL, Tg(gstp1:GFP) fluorescence signal",Nrf2,1.04 ± 0.05
CCCCCC(CC(=O)CCc1ccc(O)c(OC)c1)SC (centres unmarked) [Compound 8],"Ratio/CTL, Tg(gstp1:GFP) fluorescence signal",Nrf2,1.16 ± 0.47
CCCCCC(CC(=O)CCc1ccc(O)c(OC)c1)OC (centres unmarked) [Compound 10],"Ratio/CTL, Tg(gstp1:GFP) fluorescence signal",Nrf2,0.96 ± 0.24
"CCCCC[C@H](O)CC(=O)CCc1ccc(O)c(OC)c1 [Compound 11, [6]-gingerol, reference compound]","Ratio/CTL, Tg(gstp1:GFP) fluorescence signal",Nrf2,1.87 and 1.87 ± 0.51
"CCCCCCC[C@H](O)CC(=O)CCc1ccc(O)c(OC)c1 [Compound 12, reference compound]","Ratio/CTL, Tg(gstp1:GFP) fluorescence signal",Nrf2,1.65 and 1.65 ± 0.29
"CCCCCCCCC[C@H](O)CC(=O)CCc1ccc(O)c(OC)c1 [Compound 13, reference compound]","Ratio/CTL, Tg(gstp1:GFP) fluorescence signal",Nrf2,1.29 and 1.29 ± 0.40
CCCCCCCC(O)CCc1ccc(O)c(OC)c1 (centres unmarked) [Compound 14],"Ratio/CTL, Tg(gstp1:GFP) fluorescence signal",Nrf2,0.96 ± 0.21
same,"Nrf2 activation in Tg(gstp1:GFP) zebrafish embryos, in words",Nrf2,no effect at all
CCCCCC(CC(O)CCc1ccc(O)c(OC)c1)SCC(N)C(=O)O (centres unmarked) [Compound 15],"Ratio/CTL, Tg(gstp1:GFP) fluorescence signal",Nrf2,1.08 ± 0.65
CCCCCC(CC(O)CCc1ccc(O)c(OC)c1)SCC(NC(C)=O)C(=O)O (centres unmarked) [Compound 16],"Ratio/CTL, Tg(gstp1:GFP) fluorescence signal",Nrf2,0.78 ± 0.12
CCCCCC(CC(O)CCc1ccc(O)c(OC)c1)SC (centres unmarked) [Compound 17],"Ratio/CTL, Tg(gstp1:GFP) fluorescence signal",Nrf2,0.72 ± 0.14
CCCCC/C=C/C(=O)/C=C/c1ccc(O)c(OC)c1 [Compound 18],Cysteine conjugates found in mouse urine,[1],conjugate 35 was predominantly present
same,"Ratio/CTL, Tg(gstp1:GFP) fluorescence signal",Nrf2,5.67 and 5.67 ± 0.59
same,Cysteine conjugates found in zebrafish embryos,[2],conjugate 35 was predominantly present
CCCCCCCC(=O)/C=C/c1ccc(O)c(OC)c1 [Compound 19],"Ratio/CTL, Tg(gstp1:GFP) fluorescence signal",Nrf2,3.29 and 3.29 ± 0.35
CCCCC/C=C/C(=O)/C=C/c1cc(O)c(O)c(OC)c1 [Compound 20],"Ratio/CTL, Tg(gstp1:GFP) fluorescence signal",Nrf2,1.26 and 1.26 ± 0.14
CCCCC/C=C/C(=O)/C=C/c1cc(OC)c(O)c(C(F)(F)F)c1 [Compound 21],"Ratio/CTL, Tg(gstp1:GFP) fluorescence signal",Nrf2,2.18 and 2.18 ± 0.53
CCCCC/C=C/C(=O)/C=C/c1cccc(C(F)(F)F)c1 [Compound 22],"Ratio/CTL, Tg(gstp1:GFP) fluorescence signal",Nrf2,1.28 and 1.28 ± 0.10
CCCCC/C=C/C(=O)/C=C/c1cccc(C(F)(F)F)c1F [Compound 23],"Ratio/CTL, Tg(gstp1:GFP) fluorescence signal",Nrf2,1.63 and 1.63 ± 0.17
CCCCC/C=C/C(=O)/C=C/c1ccccc1C(F)(F)F [Compound 24],"Ratio/CTL, Tg(gstp1:GFP) fluorescence signal",Nrf2,1.55 and 1.55 ± 0.67
CCCCCCCC(=O)CCc1ccc(O)c(O)c1 [Compound 25],"Ratio/CTL, Tg(gstp1:GFP) fluorescence signal",Nrf2,4.32 and 4.32 ± 0.50
same,Cysteine conjugates found in zebrafish embryos,[2],conjugates 37 and 37b were exclusively identified
"C[S+]([O-])CCCCN=C=S (centres unmarked) [SFN, sulforaphane, reference compound]","Ratio/CTL, Tg(gstp1:GFP) fluorescence signal",Nrf2,2.03 and 2.03 ± 0.49
